Reference: ChEMBL document CHEMBL1201862, “PubChem BioAssay data set” (2004)
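How tested: cells in 96-well plates exposed to compound for 48 hours at five concentrations. GI50 marks 50% less growth.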 Active and inactive are the calls of the source. Cut-off read from the data, not from the text of the source: active = GI50 up to about 1.1 µM and inactive = higher.

What was measured:
Test in all cases: NCI anticancer screen, dose series, 48 h
[1] = test system: 786-0
[2] = test system: COLO 205
[3] = test system: HCT-15
[4] = test system: K562
[5] = test system: M14
[6] = test system: Malme-3M
[7] = test system: NCI-H460
[8] = test system: NCI-H522
[9] = test system: OVCAR-5
[10] = test system: RPMI-8226
[11] = test system: SK-MEL-28
[12] = test system: SK-MEL-5
[13] = test system: SNB-19
[14] = test system: HCT-116
[15] = test system: SF-539

Compound	GI50 [1]	GI50 [2]	GI50 [3] [µM]	GI50 [4]	GI50 [5]	GI50 [6]	GI50 [7]	GI50 [8]	GI50 [9]	GI50 [10]	GI50 [11]	GI50 [12]	GI50 [13]	GI50 [14]	GI50 [15]
O=C1CCC2(CC1)SCCCS2	> 100 µM (inactive)	> 100 µM (inactive)	> 100	> 100 µM (inactive)	> 100 µM (inactive)	> 100 µM (inactive)	> 100 µM (inactive)	> 100 µM (inactive)	> 100 µM (inactive)	> 100 µM (inactive)	> 100 µM (inactive)	> 100 µM (inactive)	> 100 µM (inactive)		
O=C1N[C@H](Cc2c[nH]cn2)C(=O)N2CCC[C@@H]12	> 100 µM (inactive)	> 100 µM (inactive)	> 100	> 100 µM (inactive)	> 100 µM (inactive)	> 100 µM (inactive)	> 100 µM (inactive)	> 100 µM (inactive)	> 100 µM (inactive)	> 100 µM (inactive)	> 100 µM (inactive)	> 100 µM (inactive)	> 100 µM (inactive)		
Cc1cc(O)c2c3c1C(=O)Oc1c(CO)c(O)c(C(=O)O)c(c1O3)C=NN=Cc1c3c(c(CO)c(O)c1C(=O)O)OC(=O)c1c(C)cc(O)c(c1O3)C=NN=C2	> 100 µM (inactive)	> 100 µM (inactive)	> 100		> 100 µM (inactive)	> 100 µM (inactive)	> 100 µM (inactive)		> 100 µM (inactive)		> 100 µM (inactive)	40.2 µM (inactive)	> 100 µM (inactive)	> 100 µM (inactive)	> 100 µM (inactive)
COC(=O)CC(NC(=O)OCc1ccccc1)C(C(=O)OCc1ccccc1)C1(C)OCCO1 (centres undefined)	51.4 µM (inactive)	18.6 µM (inactive)	37.8	43.4 µM (inactive)	40.7 µM (inactive)	33.3 µM (inactive)	34.7 µM (inactive)			22.1 µM (inactive)	66.5 µM (inactive)	17.5 µM (inactive)	50 µM (inactive)	40.4 µM (inactive)	54.6 µM (inactive)
N#Cc1c(-c2ccc(Cl)c(Cl)c2)c(-c2ccc(Cl)c(Cl)c2)nn(CC(=O)O)c1=O	> 100 µM (inactive)	71.4 µM (inactive)	28.2	43.9 µM (inactive)	99.8 µM (inactive)	> 100 µM (inactive)	36.9 µM (inactive)		> 100 µM (inactive)	79.4 µM (inactive)	75.2 µM (inactive)	34.7 µM (inactive)		41.5 µM (inactive)	
CCCC(C)C[C@@H](C)CC(C)/C=C(\C)c1oc(=O)c(C)c(O)c1C.CC[C@@H](C)C[C@@H](C)C[C@@H](C)/C=C(\C)c1oc(=O)c(C)c(O)c1C (some centres undefined)	14.5 µM (inactive)	28.2 µM (inactive)			15.5 µM (inactive)	3.56 µM (inactive)	9.29 µM (inactive)	14.8 µM (inactive)	6.19 µM (inactive)		14.8 µM (inactive)		14.2 µM (inactive)	17.6 µM (inactive)	15.4 µM (inactive)
CCOC(=O)c1cnc2cc3cccccc3n2c1=O	> 100 µM (inactive)	> 100 µM (inactive)	> 100	> 100 µM (inactive)	> 100 µM (inactive)		> 100 µM (inactive)		> 100 µM (inactive)	> 100 µM (inactive)	> 100 µM (inactive)		> 100 µM (inactive)	39.3 µM (inactive)	> 100 µM (inactive)
COc1ccc([N+]2=NC(c3ccc([N+](=O)[O-])cc3)=NN(c3ccccc3)C2)cc1.[O-][Cl+3]([O-])([O-])[O-]	> 100 µM (inactive)	10 µM (inactive)	41.9	28.1 µM (inactive)		> 100 µM (inactive)	64.6 µM (inactive)	3.65 µM (inactive)	> 100 µM (inactive)	33 µM (inactive)	> 100 µM (inactive)	28.4 µM (inactive)	> 100 µM (inactive)	65.5 µM (inactive)	
